Test results from publication PMC6684798, “Structural basis for the target specificity of actin histidine methyltransferase SETD3” (Nature Communications, 2019).

Tested on: SETD3 variants (WT, N255A, N255V)
Assay: Comparison of activities of SETD3 variants (Fig. 3a, c)
Format: biochemical, human
Conditions: Fig. 3c, K73(66–88), pH 10.5, 37 °C
Experimental: Fig. 3 Kinetics of SETD3 on H73 and K73 peptides. a Comparison of activities of three variants (WT, N255A, and N255V) on H73(66–80) peptide. The assays were performed at room temperature (~22 °C) and pH 8.0 using [WT] = 0.18 μM, [N255A] = 0.18 μM, and [N255V] = 0.72 μM. b Comparison of SETD3 WT activities on two K73 peptides (residues 66–80 and 66–88). The assays were performed at 37 °C and pH 10.5 using [WT] = 3 and 15 μM, respectively, for the long and short peptides. c Comparison of activities of three variants (N255A, N255V, and WT) on K73(66–88) peptide. The assays were performed at 37 °C and pH 10.5 using [N255A] = 90 nM, [N255V] = 0.72 μM and [WT] = 4 μM. Data represent the mean ± SD of N number of independent determinations (N = 3 for the WT and N = 2 for the mutants) performed in duplicate. […]
Recombinant human SETD3 (pXC2003) was expressed as a GST-fusion[22] in Escherichia coli BL21(DE3) CodonPlus^TM cells (Stratagene). […]
A reaction mixture contained 20 mM Tris/HCl (pH 8.0) or 20 mM glycine/NaOH (pH 10.5), 50 mM NaCl, 0.1 mg/ml BSA, 1 mM DTT, 0.18–15 µM SETD3 (as indicated in Fig. 3), 40 µM SAM and varying concentration of peptides. […] The dependence of the velocity of product formation per enzyme on substrate concentration was analyzed according to the Michaelis–Menten equation.

## K73(66–88): K73-containing actin H73K peptide, residues 66–88 (TLKYPIEKGIVTNWDDMEKIWHH; UniProt P60709 66-88, looked up, variant H73K)
  order of activity of SETD3 variants on K73: N255A≫N255V>WT
